{"source": "patent US10857199B2", "about": "“Compounds and methods for increasing hair growth” (The University of Kansas, priority 2014, dated 2020)", "key": {"[1]": {"conditions": "castrated male mice", "method": "(§1) To exploit this pathway we used B6CBAF1/J hybrid male mice reported to be susceptible to ADA. As a control and to remove background testosterone effects all the B6CBAF1/J hybrid male mice were castrated and split into two groups (n=6). The first group served as controls (Vehicle) and the second experimental group was treated with 5-α-dihydrotestosterone (5α-DHT). The 5α-DHT was administered by sub-dermal transplantation of slow release pellets purchased from Innovative Research of America. The control group was also transplanted with identically formulated placebo pellets (without 5α-DHT). Both pellets were transplanted below the right ear using a small incision that was sealed with staples. Specifically, two 21 day release and one 90 day release pellets containing 10 mg of 5α-DHT respectively were used for each experimental mouse with corresponding placebo pellets for the controls (n=6). Hair loss of the mice and the effects of 5α-DHT were then monitored over 5 months as described below.\nFIGS. 8A-8B includes DEXA analysis pictures of representative Vehicle and 5α-DHT male castrated mice showing increased bone and lean mass with treated mice. […] Two-way ANOVA analysis of the temporal weight change show significant differences for 5α-DHT treatment (p<0.0001) and change over time (p<0.0001) with no significant interaction (n=6). This confirms 5α-DHT pellet infusion was effective (see also below).\nDetailed quantitative analyses of the DEXA experiments are presented graphically in FIG. 9. […] Total and femur analyses are shown and the numbers shown on the histograms above the asterisks (*) are p values calculated using a two-tailed unpaired t test at 95% confidence intervals. A P<0.05 is considered significant and NS indicates not significant."}, "[2]": {"tested_on": "hair density", "conditions": "hair plucked from defined ROI, castrated male mice, vs placebo", "from_the_text": "A second method was then used to directly quantitate hair density, hair quality and vellus hair occurrence. Specifically, mice were sacrificed and the pelts removed and fixed in buffered formalin for histology. Also, a plastic template with a fixed portal was used to demarcate a defined and identical region of interest (ROI) between the ears and above the shoulder blades (FIG. 12). Hair was then plucked from this region weighed and microscopically analyzed. […] A plastic template with portal removed was used to facilitate hair removal from defined region of interest (ROI). Top pictures comparing control (right) and experimental (left) hairs removed from the ROI. […] The numbers shown on the histograms above the asterisk (*) is the p value calculated using a two-tailed unpaired t test at 95% confidence intervals. A P<0.05 is considered significant."}, "[3]": {"tested_on": "hair loss", "conditions": "castrated male mice", "method": "as §1"}, "[4]": {"conditions": "femurs, 3D μCT, castrated male mice", "method": "as §1"}}}
{"smiles": "C[C@]12CCC(=O)C[C@@H]1CC[C@@H]1[C@@H]2CC[C@]2(C)[C@@H](O)CC[C@@H]12", "note": "[5α-DHT, 5-α-dihydrotestosterone]", "values": [{"measurement": "Bone Mineral Content [BMC]", "setting": "[1]; DEXA, vs placebo pellets", "value": "major increases"}, {"measurement": "Bone mineral Density [BMD]", "setting": "[1]; DEXA, vs placebo pellets", "value": "major increases"}, {"measurement": "lean mass", "setting": "[1]; DEXA, vs vehicle", "value": "increased"}, {"measurement": "lean/fat mass ratios", "setting": "[1]; DEXA, vs vehicle", "value": "increased"}, {"measurement": "weight", "setting": "[1]; sub-dermal slow release pellets, 5 months, vs placebo pellets", "value": "major increases"}, {"measurement": "hair density, size and quality", "setting": "[2]", "value": "significantly reduced"}, {"measurement": "hair loss from head and shoulder blade region (inverse integrated pixel density)", "setting": "[3]; 5 months, inflection point after 2 months", "value": "accelerated hair loss"}, {"measurement": "hair at the pellet implant site", "setting": "[3]; photographs, vs placebo pellet", "value": "major hair loss"}, {"measurement": "cancellous bone and trabecular architecture at the top of the epiphyses", "setting": "[4]", "value": "major increases"}]}
